Source: ChEMBL document CHEMBL3045772, “Amide derivatives of [6-acyl-2-benzothiazolinon-3-yl] acetic acids as potential analgesic and anti-inflammatory compounds” (Med Chem Res, 2010)

Experiments:
Assay type in all cases: functional
Mus musculus [1] = assay: Anti-inflammatory activity in Mus musculus Swiss albino (mouse) assessed as inhibition of carrageenan-induced edema at 10 mg/kg, po pretreated 60 min before carrageenan-challenge measured after 270 min
Mus musculus [2] = assay: Anti-inflammatory activity in Mus musculus Swiss albino (mouse) assessed as inhibition of carrageenan-induced edema at 10 mg/kg, po pretreated 60 min before carrageenan-challenge measured after 90 min
Mus musculus [3] = assay: Anti-inflammatory activity in Mus musculus Swiss albino (mouse) assessed as inhibition of carrageenan-induced edema at 10 mg/kg, po pretreated 60 min before carrageenan-challenge measured after 360 min
Mus musculus [4] = assay: Anti-inflammatory activity in Mus musculus Swiss albino (mouse) assessed as inhibition of carrageenan-induced edema at 10 mg/kg, po pretreated 60 min before carrageenan-challenge measured after 180 min

Compound: COc1ccc2c(c1)c(CC(=O)O)c(C)n2C(=O)c1ccc(Cl)cc1 [INDOMETHACIN]
- inhibition in vivo at 10 mg/kg (Mus musculus [1]): 36.2%
- inhibition in vivo at 10 mg/kg (Mus musculus [2]): 25.4%
- inhibition in vivo at 10 mg/kg (Mus musculus [3]): 40.1%
- inhibition in vivo at 10 mg/kg (Mus musculus [4]): 30.7%
